Test results taken from patent US20230096766A1, “AMINO ACID HAVING FUNCTIONAL GROUP CAPABLE OF INTERMOLECULAR HYDROGEN BONDING, PEPTIDE COMPOUND CONTAINING SAME AND METHOD FOR PRODUCTION THEREOF” (Chugai Seiyaku Kabushiki Kaisha, priority 2018, published 2023).
*1 amine or outer side, *2 acyl side, *3 side chain or, on linkers, in order; H or OH if unused. Where a SMILES comes first, the peptide text is derived from it. Bridges are numbered along the chain shown (N, C = ends). [ ]: non-standard residue; d: D form. The star is where a group is joined. ξ: configuration not given here. NMeHph(3-OMe-4-CONHMe) = CNC(=O)c1ccc(CC[C@H](NC)C(=O)O)cc1OC; X11 = CNC(=O)c1ccc(CCN(CC(=O)[*:2])[*:1])cc1OC; X16 = CC(C)C(C)[C@H](N[*:1])C(=O)[*:2]; Hyp = O=C(O)[C@@H]1C[C@@H](O)CN1; NMeF = CN[C@@H](Cc1ccccc1)C(=O)O; NMeGABA = CN(CCCC(=O)[*:2])[*:1]; NMeI = CC[C@H](C)[C@H](NC)C(=O)O; NMeL = CN[C@@H](CC(C)C)C(=O)O; dNMeL = CN[C@H](CC(C)C)C(=O)O; ξIle = CC[C@H](C)C(N)C(=O)O; NMeAbu = CC[C@H](NC)C(=O)O; NMeA = CN[C@@H](C)C(=O)O; Piperidide = C1CCN(*)CC1; Abu = CC[C@H](N)C(=O)O; X8 = C1COC[C@@H](C*)N1; NBuGly = CCCCNCC(=O)O; Ethyl(2-OH) = OCC*; Sar = CNCC(=O)O; tBu = CC(C)(C)*

assay: in vitro; settings: human, Caco-2, Caco-2 (cm/sec)

Row | SMILES | Papp [×10⁻⁶ cm/s]
1 | CC[C@H]1C(=O)N[C@@H](CC(C)C)C(=O)N(C)[C@@H](CC(C)C)C(=O)N(C)[C@@H](Cc2ccccc2)C(=O)N[C@@H](CC(C)C)C(=O)N(C)[C@@H](CC(C)C)C(=O)N(CCc2ccc(C(=O)NC)c(OC)c2)CC(=O)N[C@@H]([C@@H](C)O)C(=O)N(C)CC(=O)N(C)[C@@H](CC(C)C)C(=O)N[C@H](C(=O)N2CCCCC2)CC(=O)N1C [AP223] ([NMeAbu]L[NMeL][NMeF]L[NMeL][X11]T[Sar][NMeL]D-Piperidide; lactam N-11) | 1.6
2 | CC[C@H](C)[C@@H]1NC(=O)[C@H](CC(C)C)N(C)C(=O)CCCN(C)C(=O)C[C@@H](C(=O)N2CCCCC2)NC(=O)[C@H](CC(C)C)N(C)C(=O)[C@H](CC(C)C)N(C)C(=O)[C@H]([C@@H](C)O)NC(=O)[C@H](CC(C)C)N(C)C(=O)[C@H](COC(C)(C)C)NC(=O)[C@H](Cc2ccccc2)N(C)C(=O)[C@H](CCc2ccc(C(=O)NC)c(OC)c2)N(C)C1=O [AP227] ([NMeGABA][NMeL]I[NMeHph(3-OMe-4-CONHMe)][NMeF]S(tBu)[NMeL]T[NMeL][NMeL]D-Piperidide; lactam N-11) | 0.48
3 | CC[C@H](C)[C@@H]1NC(=O)[C@H](CC(C)C)N(C)C(=O)CCCN(C)C(=O)C[C@@H](C(=O)N2CCCCC2)NC(=O)[C@H](CC(C)C)N(C)C(=O)[C@H](CCc2ccc(C(=O)NC)c(OC)c2)N(C)C(=O)[C@H]([C@@H](C)O)NC(=O)[C@H](CC(C)C)N(C)C(=O)[C@H](COC(C)(C)C)NC(=O)[C@H](CC(C)C)N(C)C(=O)[C@H](Cc2ccccc2)N(C)C1=O [AP228] ([NMeGABA][NMeL]I[NMeF][NMeL]S(tBu)[NMeL]T[NMeHph(3-OMe-4-CONHMe)][NMeL]D-Piperidide; lactam N-11) | 0.84
4 | CC[C@@H]1NC(=O)[C@H](CCc2ccc(C(=O)NC)c(OC)c2)N(C)C(=O)[C@H](CC(C)C)N(C)C(=O)[C@H](CC(C)C)NC(=O)[C@H](C)N(C)C(=O)C[C@@H](C(=O)N2CCCCC2)NC(=O)[C@H](CC(C)C)N(C)C(=O)CN(C)C(=O)[C@H]([C@@H](C)O)NC(=O)[C@H](CC(C)C)N(C)C(=O)[C@H](Cc2ccccc2)N(C)C1=O [AP229] ([NMeA]L[NMeL][NMeHph(3-OMe-4-CONHMe)][Abu][NMeF][NMeL]T[Sar][NMeL]D-Piperidide; lactam N-11) | 0.43
5 | CNC(=O)c1ccc(CC[C@H]2C(=O)N(C)[C@@H](CC(C)C)C(=O)N[C@@H]([C@@H](C)O)C(=O)N(C)CC(=O)N(C)[C@@H](CC(C)C)C(=O)N[C@H](C(=O)N3CCCCC3)CC(=O)N(C)[C@@H](C)C(=O)N[C@@H](CC(C)C)C(=O)N(C)[C@@H](CC(C)C)C(=O)N(C)[C@@H](Cc3ccccc3)C(=O)N[C@@H](CC(C)C)C(=O)N2C)cc1OC [AP230] ([NMeA]L[NMeL][NMeF]L[NMeHph(3-OMe-4-CONHMe)][NMeL]T[Sar][NMeL]D-Piperidide; lactam N-11) | 0.96
6 | CCCCN1CC(=O)N(C)[C@@H](Cc2ccccc2)C(=O)N(C)[C@@H](CC(C)C)C(=O)N[C@@H](COC(C)(C)C)C(=O)N(C)[C@@H](CC(C)C)C(=O)N[C@H](C(=O)N2CCCCC2)CC(=O)N(C)CC(=O)N(C)[C@@H](CCc2ccc(C(=O)NC)c(OC)c2)C(=O)N[C@@H](C(C)C)C(=O)N(C)[C@@H](CC(C)C)C(=O)N[C@@H]([C@@H](C)O)C1=O [AP231] ([Sar][NMeHph(3-OMe-4-CONHMe)]V[NMeL]T[NBuGly][NMeF][NMeL]S(tBu)[NMeL]D-Piperidide; lactam N-11) | 1
7 | CCCCN1CC(=O)N(C)[C@@H](Cc2ccccc2)C(=O)N[C@@H]([C@@H](C)CC)C(=O)N(C)[C@@H](CC(C)C)C(=O)N[C@@H]([C@@H](C)O)C(=O)N(C)CC(=O)N(C)[C@@H](CCc2ccc(C(=O)NC)c(OC)c2)C(=O)N(C)[C@@H](CC(C)C)C(=O)N[C@@H](COC(C)(C)C)C(=O)N(C)[C@@H](CC(C)C)C(=O)N[C@H](C(=O)N2CCCCC2)CC1=O [AP232] ([NBuGly][NMeF]I[NMeL]T[Sar][NMeHph(3-OMe-4-CONHMe)][NMeL]S(tBu)[NMeL]D-Piperidide; lactam N-11) | 2
8 | CC[C@H](C)[C@@H]1NC(=O)[C@H](CC(C)C)N(C)C(=O)[C@@H]2C[C@@H](OCCO)CN2C(=O)[C@H]([C@@H](C)O)NC(=O)[C@H](CC(C)C)N(C)C(=O)[C@H](CC(C)C)NC(=O)[C@H](C(C)C(C)C)NC(=O)[C@@H](CC(C)C)N(C)C(=O)C[C@@H](C(=O)N2CCCCC2)NC(=O)[C@H](CC(C)C)NC(=O)[C@H](CC(C)C)N(C)C1=O (stereo partly shown) [AP233] ([dNMeL][X16]L[NMeL]T[Hyp](Ethyl(2-OH))[NMeL]I[NMeL]LD-Piperidide; lactam N-11) | 3
9 | CC(C)C[C@H]1NC(=O)C[C@@H](C(=O)N2CCCCC2)NC(=O)[C@H](CC(C)C)N(C)C(=O)[C@H](Cc2ccccc2)NC(=O)[C@H](Cc2ccccc2)N(C)C(=O)[C@H]([C@@H](C)O)NC(=O)[C@H](CC(C)C)N(C)C(=O)[C@@H]2C[C@@H](OCCO)CN2C(=O)[C@H](CC(C)C)N(C)C(=O)[C@H](COC(C)(C)C)NC(=O)[C@@H]2CCCN2C1=O [AP234] ([dL]PS(tBu)[NMeL][Hyp](Ethyl(2-OH))[NMeL]T[NMeF]F[NMeL]D-Piperidide; lactam N-11) | 1.3
10 | CC(C)C[C@@H]1NC(=O)C[C@@H](C(=O)N2CCCCC2)NC(=O)[C@H](CC(C)C)N(C)C(=O)[C@H](Cc2ccccc2)NC(=O)[C@H](Cc2ccccc2)N(C)C(=O)[C@H]([C@@H](C)O)NC(=O)[C@H](CC(C)C)N(C)C(=O)[C@@H]2C[C@@H](OCCO)CN2C(=O)[C@H](CC(C)C)N(C)C(=O)[C@H](COC(C)(C)C)NC(=O)[C@H](CC(C)C)N(C)C1=O [AP235] (L[NMeL]S(tBu)[NMeL][Hyp](Ethyl(2-OH))[NMeL]T[NMeF]F[NMeL]D-Piperidide; lactam N-11) | 1.5
11 | CC(C)C[C@@H]1NC(=O)[C@H](CC(C)C)N(C)C(=O)[C@H](CC(C)C)N(C)C(=O)[C@H](COC(C)(C)C)NC(=O)[C@H](CC(C)C)N(C)C(=O)[C@@H](C(C)C)NC(=O)C[C@@H](C(=O)N2CCCCC2)NC(=O)[C@H](CC(C)C)N(C)C(=O)[C@H](Cc2ccccc2)NC(=O)[C@@H]2C[C@@H](OCCO)CN2C(=O)[C@H]([C@@H](C)O)NC1=O [AP237] ([dV][NMeL]S(tBu)[NMeL][NMeL]LT[Hyp](Ethyl(2-OH))F[NMeL]D-Piperidide; lactam N-11) | 1.3
12 | CC[C@H](C)[C@H]1C(=O)N2CCC[C@H]2C(=O)N(C)[C@@H](CC(C)C)C(=O)N[C@@H](COC(C)(C)C)C(=O)N2C[C@H](OCCO)C[C@H]2C(=O)N[C@@H]([C@@H](C)O)C(=O)N(C)[C@@H](CC(C)C)C(=O)N(C)[C@@H](CC(C)C)C(=O)N(C)[C@@H](CC(C)C)C(=O)N[C@H](C(=O)N2CCCCC2)CC(=O)N[C@H](CC(C)C)C(=O)N1C [AP238] ([dL][NMeI]P[NMeL]S(tBu)[Hyp](Ethyl(2-OH))T[NMeL][NMeL][NMeL]D-Piperidide; lactam N-11) | 2
13 | CCCCN1CC(=O)N(C)[C@@H](CC(C)C)C(=O)N[C@@H](COC[C@@H]2COCCN2)C(=O)N(C)[C@@H](CC(C)C)C(=O)N(C)[C@@H](CC(C)C)C(=O)N[C@H](C(=O)N2CCCCC2)CC(=O)N[C@H](C(C)C)C(=O)N(C)[C@@H](Cc2ccccc2)C(=O)N[C@@H](CC(C)C)C(=O)N(C)[C@@H](CC)C(=O)N[C@@H]([C@@H](C)O)C1=O [AP239] ([dV][NMeF]L[NMeAbu]T[NBuGly][NMeL]S(X8)[NMeL][NMeL]D-Piperidide; lactam N-11) | 0.18
14 | CCCCN1CC(=O)N(C)[C@@H](CC)C(=O)N[C@@H](COC[C@@H]2COCCN2)C(=O)N(C)[C@@H](Cc2ccccc2)C(=O)N(C)[C@@H](CC)C(=O)N[C@H](C(=O)N2CCCCC2)CC(=O)N[C@H](CC(C)C)C(=O)N(C)[C@@H](CC(C)C)C(=O)N[C@@H]([C@@H](C)CC)C(=O)N(C)[C@@H](CC(C)C)C(=O)N[C@@H]([C@@H](C)O)C1=O [AP240] ([dL][NMeL]I[NMeL]T[NBuGly][NMeAbu]S(X8)[NMeF][NMeAbu]D-Piperidide; lactam N-11) | 0.08
15 | CC[C@H](C)[C@@H]1NC(=O)[C@H](CC(C)C)N(C)C(=O)CCCN(C)C(=O)C[C@@H](C(=O)N2CCCCC2)NC(=O)[C@H](CC(C)C)N(C)C(=O)[C@H](CC(C)C)N(C)C(=O)[C@H]([C@@H](C)O)NC(=O)[C@H](CC(C)C)N(C)C(=O)[C@H](COC[C@@H]2COCCN2)NC(=O)[C@H](CC(C)C)N(C)C(=O)[C@H](Cc2ccccc2)N(C)C1=O [AP241] ([NMeGABA][NMeL]I[NMeF][NMeL]S(X8)[NMeL]T[NMeL][NMeL]D-Piperidide; lactam N-11) | 0.05
16 | CCCCN1CC(=O)N(C)[C@@H](CC(C)C)C(=O)N[C@H](C(=O)N2CCCCC2)CC(=O)N(C)[C@@H](CC)C(=O)N[C@@H](CC(C)C)C(=O)N(C)[C@@H](CC(C)C)C(=O)N(C)[C@@H](Cc2ccccc2)C(=O)N[C@@H](COC[C@@H]2COCCN2)C(=O)N(C)[C@@H](CC)C(=O)N(C)[C@@H](CC(C)C)C(=O)N[C@@H]([C@@H](C)O)C1=O [AP242] ([NMeAbu]L[NMeL][NMeF]S(X8)[NMeAbu][NMeL]T[NBuGly][NMeL]D-Piperidide; lactam N-11) | 1.2
17 | CCCCN1CC(=O)N(C)[C@@H](CC(C)C)C(=O)N[C@H](C(=O)N2CCCCC2)CC(=O)N(C)[C@@H](C)C(=O)N[C@@H](COC[C@@H]2COCCN2)C(=O)N(C)[C@@H](CC(C)C)C(=O)N(C)[C@@H](CC)C(=O)N[C@@H](C(C)C)C(=O)N(C)[C@@H](Cc2ccccc2)C(=O)N(C)[C@@H](CC(C)C)C(=O)N[C@@H]([C@@H](C)O)C1=O [AP243] ([NMeA]S(X8)[NMeL][NMeAbu]V[NMeF][NMeL]T[NBuGly][NMeL]D-Piperidide; lactam N-11) | 0.46
18 | CCCCN1CC(=O)N(C)[C@@H](Cc2ccccc2)C(=O)N(C)[C@@H](CC(C)C)C(=O)N[C@@H](C(C)C)C(=O)N(C)[C@@H](CC(C)C)C(=O)N[C@H](C(=O)N2CCCCC2)CC(=O)N(C)CC(=O)N(C)[C@@H](CC(C)C)C(=O)N[C@@H](COC[C@@H]2COCCN2)C(=O)N(C)[C@@H](CC(C)C)C(=O)N[C@@H]([C@@H](C)O)C1=O [AP244] ([Sar][NMeL]S(X8)[NMeL]T[NBuGly][NMeF][NMeL]V[NMeL]D-Piperidide; lactam N-11) | 0.46
19 | CCCCN1CC(=O)N(C)[C@@H](Cc2ccccc2)C(=O)N(C)[C@@H](CC(C)C)C(=O)N[C@@H](COC[C@@H]2COCCN2)C(=O)N(C)[C@@H](CC(C)C)C(=O)N[C@H](C(=O)N2CCCCC2)CC(=O)N(C)CC(=O)N(C)[C@@H](CC(C)C)C(=O)NC([C@@H](C)CC)C(=O)N(C)[C@@H](CC(C)C)C(=O)N[C@@H]([C@@H](C)O)C1=O (stereo partly drawn) [AP245] ([Sar][NMeL][ξIle][NMeL]T[NBuGly][NMeF][NMeL]S(X8)[NMeL]D-Piperidide; lactam N-11) | 0.1
